This is an account of results in EPA's ToxRefDB 2.

Usually NOAEL stands for the highest tested level that showed no adverse finding. Broadly, the LOAEL is the lowest dose or exposure tested at which an adverse effect was seen.

For data set [1], the system named is mouse. The note with it: Carcinogenicity, cd1, Oral, Feed, dose end: 81 week, group: systemic.
The subject of data set [2] is mouse. The following applies: Sub-acute repeat dose toxicity, cd1, Oral, Feed, dose end: 5 week, group: systemic.
The next data set concerns rabbit. The following applies: Prenatal developmental toxicity study, new zealand white, Oral, Gavage/Intubation, dose end: 19 GD.
In the next data set the test system is dog. The note with it: Chronic toxicity; beagle; Oral; Capsule; dose end: 52 week; group: systemic; systemic / in life observation / clinical signs / ataxia + systemic / in life observation / clinical signs / squinting + systemic / in life ….
The test system of a further data set is rat. The note with it: Combined chronic toxicity/carcinogenicity, fischer, Oral, [Not Specified], dose end: 123 week, group: systemic.
[3] abbreviates: systemic / organ weight / liver / relative to body weight + systemic / pathology microscopic / liver / fatty change.
Setting [4] is: systemic / organ weight / liver / relative to body weight + systemic / pathology microscopic / liver / fatty change + systemic / pathology ….
Setting [5] is: systemic / clinical chemistry / alanine aminotransferase (alt/sgpt) / alanine aminotransferase (alt/sgpt) + systemic / clinical chemistry / ….
Setting [6] is: systemic / clinical chemistry / triglycerides / triglycerides.
[7] abbreviates: group: developmental, developmental / developmental malformation / bone / fused + developmental / developmental malformation / bone / thoracic hemivertebra.
[8] abbreviates: group: maternal, systemic / in life observation / body weight / body weight gain + systemic / in life observation / clinical signs / convulsions + systemic….
Where [9] appears, read: systemic / organ weight / liver / absolute + systemic / organ weight / liver / relative to body weight + systemic / urinalysis / specific ….

As to `C=CCC1=C(C)C(OC(=O)C2C(C=C(C)C)C2(C)C)CC1=O` (centres undefined) [Allethrin], the NEL with mouse [1] (setting [3]) was 71.6 mg/kg/day; with mouse [2] (setting [6]) it was less than 14 mg/kg/day; in the data set on rabbit (setting [7]) it was 100 mg/kg/day; with rabbit (setting [8]), 100 mg/kg/day; in the data set on dog, 6 mg/kg/day; with rat (setting [9]), less than 5.9 mg/kg/day. For the same compound, the no-observed-adverse-effect level (NOAEL) with mouse [1] (setting [3]) turned out to be 71.6 mg/kg/day; with mouse [2] (setting [5]), 438 mg/kg/day; in the data set on rabbit (setting [7]) it was 100 mg/kg/day; in the data set on rabbit (setting [8]), 100 mg/kg/day; in the data set on dog it was 6 mg/kg/day; with rat (setting [9]), 5.9 mg/kg/day. Further, the LEL in the data set on mouse [1] (setting [4]) stood at 350 mg/kg/day; with mouse [2] (setting [6]), 14 mg/kg/day; in the data set on rabbit (setting [7]) it was 350 mg/kg/day; in the data set on rabbit (setting [8]), 350 mg/kg/day; in the data set on dog, 20 mg/kg/day; in the data set with rat (setting [9]), 5.9 mg/kg/day. Further, the lowest-observed-adverse-effect level (LOAEL) in the data set on mouse [1] (setting [4]) was determined as 350 mg/kg/day; in the data set on mouse [2] (setting [5]), 1520 mg/kg/day; in the data set on rabbit (setting [7]) it was 350 mg/kg/day; with rabbit (setting [8]), 350 mg/kg/day; in the data set on dog it was 20 mg/kg/day; in the data set on rat (systemic / organ weight / liver / absolute + systemic / organ weight / liver / relative to body weight), 24.5 mg/kg/day.
